The text below walks through data of publication PMC12059162 (Scientific Reports, 2025).

Each structure is given as a SMILES string.

For series [1], the system named is FADD. The series is described as follows: Human Apoptosis Array in PANC-1 cells. To be noted: PANC-1, 0.5 µM, 72 h.
For series [2], the system named is phospho-p53 (S392). The series is described as follows: Human Apoptosis Array in PANC-1 cells. The note with it: PANC-1, 0.5 µM, 72 h.
For series [3], the system named is XIAP. The series is described as follows: Human Apoptosis Array in PANC-1 cells. To be noted: PANC-1, 0.5 µM, 72 h.
For series [4], the system named is PANC-1 cells. The series is described as follows: CyQUANT LDH direct cytotoxicity assay. It counts as cell-based, human. To be noted: PANC-1, 25 µM, 72 h. As to the method:
To assess the direct cytotoxicity, the CyQUANT™ LDH Cytotoxicity Assay (Invitrogen Corporation, New York, NY, USA) was used, which is a colourimetric assay. It is based on the detection of lactate dehydrogenase (LDH) activity. When there is damage to the plasma membrane, LDH is released into the cell culture medium, where it can be detected. First, 5 × 10^3 cells/well/100 µL concentration of cells were seeded in a 96-well plate, and after 24 h of incubation, the cells were treated with the molecules at concentrations of 0.5, 10 and 25 µM. After 72 h of treatment, 50 µl of the media from each sample was pipetted to a new 96-well plate. Then, the necessary steps were carried out according to the manufacturer’s instructions. Absorbance was measured for each well using a plate reader (Multiskan MS, Labsystems, Helsinki, Finland) at 492 and 680 nm. The % cytotoxicity was then calculated according to the manufacturer’s instructions. Three parallel samples were analysed in each treatment group.

Series [5] has as its system cleaved caspase-3. The series is described as follows: Human Apoptosis Array in PANC-1 cells. To be noted: PANC-1, 0.5 µM, 72 h.
The subject of series [6] is caspase-3/7. The series is described as follows: CellEvent Caspase-3/7 activity imaging in PANC-1 cells. To be noted: PANC-1, 0.5 µM, 72 h, normalised to DMSO control (n = 1).
Series [7] has as its system survivin. The series is described as follows: Human Apoptosis Array in PANC-1 cells. The note with it: PANC-1, 0.5 µM, 72 h.
For series [8], the system named is DR4. The series is described as follows: qPCR apoptotic gene expression in PANC-1 cells. The note with it: PANC-1, 25 µM.
In series [9] the test system is SMAC. The series is described as follows: Human Apoptosis Array in PANC-1 cells. To be noted: PANC-1, 0.5 µM, 72 h.

Take `O=C1C2=C(CCN(Cc3ccccc3)C2)N2CCN=C2N1Cc1ccc(F)cc1` [TBP-134]: the FADD protein level entry in series [1] is reported as “decrease”. For the same compound, in series [2], the “phospho-p53 (S392) protein level” value is on record as “decrease”. Also, the XIAP protein level result in series [3] was “decrease”. In [4] (Homo sapiens, DMSO control 5.3%), this compound came in with a cytotoxicity at 25 µM of 6.9%. The “Direct cytotoxicity, fold compared to the DMSO control” value in series [4] was 1.3 fold.
In the case of `O=C1C2=C(CCN(Cc3ccccc3)C2)N2CCN=C2N1Cc1cccc(F)c1` [TBP-135], the “cleaved caspase-3 protein level” value in series [5] is reported as “significantly increased”. For the same compound, in series [6], the “Number of caspase-3/7 active cells, increase” value was 7.8 fold. Further, the survivin protein level result in [7] is reported as “did not exert detectable change”. The “DR4 mRNA expression” value in series [8] (3 h) is reported as “significantly upregulated”; in [8] (24 h, normalised to DMSO control) it was 3.7 fold. For the same compound, the SMAC protein level result in series [9] is “significantly increased”.
